The target in test [1] is T1, CFTR in F508del/F508del primary CF hBE cells (Homo sapiens, UniProt P13569, DEL508-508).
T1 construct: Primary cystic fibrosis human bronchial epithelial (CF hBE) cells were expanded and cultured; endogenous in cells; host or cells: primary CF human bronchial epithelial cells, genotype F508del/F508del
The test can be described thus: Ussing chamber electrophysiology assay of CFTR potentiation in F508del/F508del CF bronchial epithelial cells (27° C.). The class given is cell-based. From the text:
• SHELXTL, Version 5.1, Bruker AXS, 1997. • PLATON, A. L. Spek, J. Appl. Cryst. 2003, 36, 7-13. • MERCURY, C. F. Macrae, P. R. Edington, P. McCabe, E. Pidcock, G. P. Shields, R. Taylor, M. Towler and J. van de Streek, J. Appl. Cryst. 39, 453-457, 2006. • OLEX2, Dolomanov, O. V.; Bourhis, L. J.; Gildea, R. J.; Howard, J. A. K.; Puschmann, H., (2009). J. Appl. Cryst., 42, 339-341. • R. W. W. Hooft et al. J. Appl. Cryst. (2008). 41. 96-103. • H. D. Flack, Acta Cryst. 1983, A39, 867-881. Using Chamber Electrophysiology Assay of CFTR Potentiation in CF Bronchial Epithelial Cells
Primary cystic fibrosis human bronchial epithelial (CF hBE) cells were expanded and cultured according to published methods (Neuberger et al., Ch. 4 of Cystic Fibrosis, Methods in Molecular Biology vol. 741, pp. 39-54 (2011)). Well-differentiated cells (>30 days at air/liquid interface) on Snapwell filters (Corning Costar, cat. no. 3801) were mounted in Ussing chambers (Physiologic Instruments, Inc., San Diego, CA). […] HEPES buffered physiological saline (composition (in mM): 137 NaCl, 4 KCl, 1 MgCl2, 1.8 CaCl2), 10 HEPES Na) was used in both apical and basolateral chambers. Chambers were bubbled with air to promote mixing and the voltage was clamped to zero. Amiloride (30 uM), forskolin (10 uM), test compound (4 increasing concentrations), and CFTRinh-172 (20 uM) were added sequentially with 20-25 minutes between additions. Short-circuit currents were acquired and analyzed using LabScribe2. Test compound responses were scaled relative to responses for DMSO (0%) and the maximal response of a positive control potentiator (100%).

The target of test [2] is T2, recombinant F508del V470 CFTR in Fischer rat thyroid (FRT) cells (Homo sapiens, UniProt P13569, DEL508-508).
T2 construct: expressed in transfected cells
T2 sequence (P13569 with tags, fused parts or gaps DEL508-508): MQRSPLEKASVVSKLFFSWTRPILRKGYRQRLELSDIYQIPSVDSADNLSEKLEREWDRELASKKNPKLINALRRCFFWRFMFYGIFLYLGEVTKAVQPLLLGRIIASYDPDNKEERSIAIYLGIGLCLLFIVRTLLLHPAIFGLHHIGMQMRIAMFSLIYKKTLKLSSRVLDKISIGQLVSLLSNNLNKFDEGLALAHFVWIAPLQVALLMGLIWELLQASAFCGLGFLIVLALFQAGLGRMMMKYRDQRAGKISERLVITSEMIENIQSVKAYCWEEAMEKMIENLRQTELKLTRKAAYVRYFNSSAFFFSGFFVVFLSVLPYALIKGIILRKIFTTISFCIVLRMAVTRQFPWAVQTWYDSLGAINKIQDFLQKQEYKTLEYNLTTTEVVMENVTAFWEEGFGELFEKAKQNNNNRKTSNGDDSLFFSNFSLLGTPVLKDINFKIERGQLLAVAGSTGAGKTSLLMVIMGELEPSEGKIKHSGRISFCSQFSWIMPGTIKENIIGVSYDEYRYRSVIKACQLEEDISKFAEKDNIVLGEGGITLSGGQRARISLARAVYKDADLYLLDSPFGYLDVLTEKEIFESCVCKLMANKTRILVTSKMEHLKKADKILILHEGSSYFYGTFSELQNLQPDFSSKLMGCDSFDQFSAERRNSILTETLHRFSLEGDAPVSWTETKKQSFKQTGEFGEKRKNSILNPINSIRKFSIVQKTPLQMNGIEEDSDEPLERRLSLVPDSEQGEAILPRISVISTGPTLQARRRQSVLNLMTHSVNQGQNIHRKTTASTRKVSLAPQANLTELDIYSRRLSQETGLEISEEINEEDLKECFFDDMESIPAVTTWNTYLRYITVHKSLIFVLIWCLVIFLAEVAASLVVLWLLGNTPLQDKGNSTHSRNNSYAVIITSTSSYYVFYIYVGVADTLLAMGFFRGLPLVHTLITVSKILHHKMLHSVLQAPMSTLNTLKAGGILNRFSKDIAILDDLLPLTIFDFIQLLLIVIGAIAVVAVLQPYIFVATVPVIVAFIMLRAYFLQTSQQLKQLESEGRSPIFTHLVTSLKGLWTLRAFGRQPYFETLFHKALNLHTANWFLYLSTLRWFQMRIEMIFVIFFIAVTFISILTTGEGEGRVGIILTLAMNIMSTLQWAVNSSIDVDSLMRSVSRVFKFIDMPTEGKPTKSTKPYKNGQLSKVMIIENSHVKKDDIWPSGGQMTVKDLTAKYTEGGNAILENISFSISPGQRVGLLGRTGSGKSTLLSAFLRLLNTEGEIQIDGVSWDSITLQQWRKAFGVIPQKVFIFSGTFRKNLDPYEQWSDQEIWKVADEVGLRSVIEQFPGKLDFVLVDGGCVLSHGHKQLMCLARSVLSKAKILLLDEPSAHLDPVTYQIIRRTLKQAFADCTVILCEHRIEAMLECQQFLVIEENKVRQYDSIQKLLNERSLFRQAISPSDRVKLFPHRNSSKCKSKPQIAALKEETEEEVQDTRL
The test is described as follows: FRT ion flux assay of F508del CFTR potentiation. Format: cell-based. Particulars: FRT cells expressing F508del V470 CFTR, forskolin 20 uM, 27° C. pre-incubation. On the procedure:
FRT Ion Flux Assay of F508del CFTR Potentiation
Fischer rat thyroid (FRT) cell lines stably expressing recombinant F508del V470 CFTR and halide-sensitive yellow fluorescent protein (Pedemonte et al., J. Clin. Invest. 115(9) 2564-71 (2005)) were seeded at 25,000 cells/well in 50 uL/well of culture medium into black-walled, clear bottom tissue-culture-treated 384-well plates (Corning, cat. no. 3712). After one day, the cells were pre-incubated at 27° C./5% CO2 for 16-24 hours. The cells were then washed with dPBS and treated with forskolin (20 uM) and test compound for 30 mi by addition of 20 uL of compound dilution buffer (dPBS containing forskolin and test compound). Plates were loaded into FLIPR384 fluorescence imaging plate reader (Molecular Devices). After an initial fluorescence reading, iodide buffer (25 uL) (composition (in mM): 137 NaI, 1.5 K2PO4, 8.1 NaH2PO4, 2.7 KCl, 0.5 MgCl2, 1 CaCl2) was added and a second fluorescence reading was made after approximately 21 seconds. Data treatment involved division of the second fluorescence reading by the initial fluorescence reading, then scaling of the resulting normalized endpoint fluorescence with respect to the responses for DMSO (0%) and a positive control potentiator (100%).

T1 sequence (P13569 with tags, fused parts or gaps DEL508-508): as above

As usually defined, the EC50 is the concentration giving half of the maximal effect. Consider `COc1ccc(-c2cn(Cc3cn(-c4ccccc4F)nn3)c3ncnc(N)c23)cc1` [Example 85, 7-{[1-(2-Fluorophenyl)-1H-1,2,3-triazol-4-yl]methyl}-5-(4-methoxyphenyl)-7H-pyrrolo[2,3-d]pyrimidin-4-amine], for which the EC50 was 56.9 nM in test [1] and 73.4 nM in test [2]. Take `COc1cnc(-c2cn(C(C)c3cc(-c4ccccc4F)no3)c3ncnc(N)c23)cn1` (stereo not drawn) [Example 191, 7-{1-[3-(2-Fluorophenyl)-1,2-oxazol-5-yl]ethyl}-5-(5-methoxypyrazin-2-yl)-7H-pyrrolo[2,3-d]pyrimidin-4-amine]: the concentration giving a half-maximal response (EC50) in test [1] amounted to 103 nM; in test [2], 918 nM. Regarding `CCC(c1cnn(-c2ccccc2F)c1)n1c(C#N)c(-c2cnc(C(F)(F)F)nc2)c2c(N)ncnc21` (single isomer, unassigned) [Example 3, 4-Amino-7-{1-[1-(2-fluorophenyl)-1H-pyrazol-4-yl]propyl}-5-[2-(trifluoromethyl)pyrimidin-5-yl]-7H-pyrrolo[2,3-d] pyrimidine-6-carbonitrile], the values for the EC50 in test [1] and in test [2] were 3.36 nM and 9.17 nM, respectively.

For the compound `CCC(c1cn(-c2ccc(F)c(F)c2)nn1)n1cc(-c2cncnc2OC)c2c(N)ncnc21` (single isomer, unassigned; enantiomer 2) [Example 152, (−) 7-{1-[1-(3,4-Difluorophenyl)-1H-1,2,3-triazol-4-yl]propyl}-5-(4-methoxypyrimidin-5-yl)-7H-pyrrolo[2,3-d]pyrimidin-4-amine, enantiomer 2], the 50% effective concentration (EC50) in test [1] amounted to 445 nM; in test [2], 182 nM.

Turning to `CCC(c1cn(-c2ccccc2)nn1)n1cc(-c2cncnc2OC)c2c(N)ncnc21` (stereo not drawn) [Example 248, 5-(4-Methoxypyrimidin-5-yl)-7-{1-[1-phenyl-1H-1,2,3-triazol-4-yl]propyl}-7H-pyrrolo[2,3-d]pyrimidin-4-amine], the EC50 in test [1] turned out to be 55.4 nM; in test [2], 25.9 nM. The corresponding values for `CCC(c1cn(-c2ccccc2F)nn1)n1cc(-c2cncnc2OC)c2c(N)nc(C)nc21` (stereo not drawn) [Example 302, 7-{1-[1-(2-Fluorophenyl)-1H-1,2,3-triazol-4-yl]propyl}-5-(4-methoxypyrimidin-5-yl)-2-methyl-7H-pyrrolo[2,3-d]pyrimidin-4-amine] are 297 nM and 232 nM.

Turning to `CC(c1cn(-c2ncccc2F)nn1)n1ccc2c(Nc3ccc(OC4CC4)cc3)ncnc21` (stereo not drawn) [Example 288, [4-(Cyclopropyloxy)phenyl]-7-{1-[1-(3-fluoropyridin-2-yl)-1H-1,2,3-triazol-4-yl]ethyl}-7H-pyrrolo[2,3-d]pyrimidin-4-amine], the figures for the EC50 in test [1] and in test [2] were 39.6 nM and 90.6 nM, respectively. For `Nc1ncnc2c1c(C1CN(S(=O)(=O)CC3CC3)C1)cn2Cc1cn(-c2ccccc2F)nn1` [Example 293, 5-{1-[(Cyclopropylmethyl)sulfonyl]azetidin-3-yl}-7-{[1-(2-fluorophenyl)-1H-1,2,3-triazol-4-yl]methyl}-7H-pyrrolo[2,3-d]pyrimidin-4-amine], the EC50 in test [2] was found to be 1890 nM. On to `CCC(c1cn(-c2ccccc2F)nn1)n1cc(-c2cnc(N(C)C)nc2)c2c(N)ncnc21` (single isomer, unassigned; enantiomer 2) [Example 146, 5-[2-(Dimethylamino)pyrimidin-5-yl]-7-{1-[1-(2-fluorophenyl)-1H-1,2,3-triazol-4-yl]propyl}-7H-pyrrolo[2,3-d]pyrimidin-4-amine, enantiomer 2], for which, in test [2], the EC50 was 1190 nM.

Turning to `Nc1ncnc2c1c(-c1ccc(Cl)cc1)cn2Cc1nnc(-c2ccccc2)[nH]1` [Example 284, 5-(4-Chlorophenyl)-7-[(5-phenyl-4H-1,2,4-triazol-3-yl)methyl]-7H-pyrrolo[2,3-d]pyrimidin-4-amine], the EC50 in test [1] was 551 nM. For `CC(c1cnc(-c2ccccc2F)[nH]1)n1cc(-c2cccc3ccncc23)c2c(N)ncnc21` (stereo not drawn) [Example 61, 7-{1-[2-(2-Fluorophenyl)-1H-imidazol-5-yl]ethyl}-5-(isoquinolin-8-yl)-7H-pyrrolo[2,3-d]pyrimidin-4-amine], the concentration giving a half-maximal response (EC50) in test [2] amounted to 1480 nM. On to `CC(c1cn(-c2ccccc2F)nn1)n1cc(-c2cnc3ccccc3c2)c2c(N)ncnc21` (stereo not drawn) [Example 100, 7-{1-[1-(2-Fluorophenyl)-1H-1,2,3-triazol-4-yl]ethyl}-5-(quinolin-3-yl)-7H-pyrrolo[2,3-d]pyrimidin-4-amine], for which the EC50 in test [2] turned out to be 277 nM. Still for that read-out and setting: the same measure for `Cc1ccc2cc(F)c(-c3cn(C(C)c4cnc(-c5ccccc5F)[nH]4)c4ncnc(N)c34)cc2n1` (stereo not drawn) [Example 63, 5-(6-Fluoro-2-methylquinolin-7-yl)-7-{1-[2-(2-fluorophenyl)-1H-imidazol-5-yl]ethyl}-7H-pyrrolo[2,3-d]pyrimidin-4-amine]: 4540 nM; for `CC(c1cc(-c2ccccc2F)no1)n1cc(-c2ccnc3[nH]ccc23)c2c(N)ncnc21` (stereo not drawn) [Example 103, 7-{1-[3-(2-Fluorophenyl)-1,2-oxazol-5-yl]ethyl}-5-(1H-pyrrolo[2,3-b]pyridin-4-yl)-7H-pyrrolo[2,3-d]pyrimidin-4-amine]: 5150 nM. The same measure, in the same setting: the figure for `Cn1ncc2c(-c3cn(Cc4cn(-c5ccccc5F)nn4)c4ncnc(N)c34)cccc21` [Example 78, 7-{[1-(2-Fluorophenyl)-1H-1,2,3-triazol-4-yl]methyl}-5-(1-methyl-1H-indazol-4-yl)-7H-pyrrolo[2,3-d]pyrimidin-4-amine] is 1380 nM. On the same count and under the same terms, the figure for `CC(=O)c1ccc(-c2cn(C(C)c3cn(-c4ccccc4F)nn3)c3ncnc(N)c23)s1` (stereo not drawn) [Example 91, 1-[5-(4-Amino-7-{1-[1-(2-fluorophenyl)-1H-1,2,3-triazol-4-yl]ethyl}-7H-pyrrolo[2,3-d]pyrimidin-5-yl)thiophen-2-yl]ethanone] is 111 nM.

On to `COc1cc2c(cc1-c1cn(C(C)c3cnc(-c4ccccc4F)[nH]3)c3ncnc(N)c13)CCC2` (stereo not drawn) [Example 69, 7-{1-[2-(2-Fluorophenyl)-1H-imidazol-5-yl]ethyl}-5-(6-methoxy-2,3-dihydro-1H-inden-5-yl)-7H-pyrrolo[2,3-d]pyrimidin-4-amine], for which, in test [2], the EC50 was 915 nM. The same measure, in the same setting: the same measure for `CC(c1cn(-c2ccc(F)cc2F)nn1)n1cc(-c2cnc(C(F)(F)F)nc2)c2c(N)ncnc21` (single isomer, unassigned; enantiomer 2) [Example 124, 7-{1-[1-(2,4-Difluorophenyl)-1H-1,2,3-triazol-4-yl]ethyl}-5-[2-(trifluoromethyl)pyrimidin-5-yl]-7H-pyrrolo[2,3-d]pyrimidin-4-amine, enantiomer 2]: 1240 nM; for `CCC(c1cn(-c2ccc(OC)nc2)nn1)n1cc(-c2cnc(C(F)(F)F)nc2)c2c(N)ncnc21` (single isomer, unassigned; enantiomer 2) [Example 310, 7-{1-[1-(6-Methoxypyridin-3-yl)-1H-1,2,3-triazol-4-yl]propyl}-5-[2-(trifluoromethyl)pyrimidin-5-yl]-7H-pyrrolo[2,3-d]pyrimidin-4-amine, enantiomer 2]: 1300 nM. Take `Nc1ncnc2c1c(-c1ccc(Cl)cc1)cn2Cc1cn(-c2ccccc2F)cn1` [Example 265, 5-(4-Chlorophenyl)-7-{[1-(2-fluorophenyl)-1H-imidazol-4-yl]methyl}-7H-pyrrolo[2,3-d]pyrimidin-4-amine]: the EC50 in test [2] is 3880 nM.
